{
  "source": "patent US20130225539A1",
  "about": "“METHOD FOR PRODUCING CRYSTALLINE 5-AMINOSALICYLIC ACID” (Pharmazell GMBH, priority 2010, published 2013)",
  "format_in_all_cases": "physicochemical",
  "key": {"[1]": {"assay": "Bulk density (USP 616, Method 1)", "settings": "crystalline powder", "method": "(§1) The bulk density and tapped density are measured by methods known to the skilled person, such as those described in the USP (“United States Pharmacopeia”) monograph, e.g., USP 27, Vol. 1, pp. 226 to 227, May 1, 2009-Apr. 30, 2010, Bulk Density 616, Method 1, Tapped Density 616, Method 2. The measurement of the grain size distribution is effected according to the protocols of European Pharmacopeia, Supplement 6.6, Chapter 2.9.31 “Particle Size Analysis by Laser Light Diffraction” pp. 5103-5107."}, "[2]": {"assay": "Tapped density (USP 616, Method 2)", "settings": "crystalline powder", "method": "as §1"}, "[3]": {"assay": "Grain size distribution by laser light diffraction (Ph. Eur. 2.9.31)", "method": "as §1\n(§2) The crystals are described by their particle size distribution as observed by laser diffraction, their optical micrograph image and their aspect ratio which can be determined, for example, by means of image analysis using the Malvern Symex FPIA 3000."}, "[4]": {"assay": "Crystal shape by image analysis (Malvern Sysmex FPIA 3000): aspect ratio, circularity", "settings": "for Aspect ratio (width/length; w/l): main fraction of the crystals", "source_text": "as §2\nThe aspect ratio (width/length; w/l) is expressed by a proportion. In the case of the 5-ASA according to the invention having a particularly high bulk density, the main fraction of the crystals has an aspect ratio around 0.5. From this, a width to length ratio of w/l of 1:2 can be calculated. In the 5-ASA having a high bulk density according to the invention, the aspect ratio is around 0.36, thus corresponding to a width to length ratio of 1:3. The different aspect ratios of the 5-ASA crystal fractions according to the invention having high and particularly high bulk densities bring about the different bulk and tapped densities and the differently broad grain size distributions seen in the laser diffractograms according to FIG. 10 and FIG. 11.\nThe measured value of circularity describes the deviation of the crystal shape from ideal spherical shape. A value of 1 corresponds to an ideal sphere."}, "[5]": {"settings": "listed as 5-ASA coarse crystals"}},
  "note": "Like-named read-outs stand apart in the source and are kept apart here.",
  "data": [
    {"compound": "Nc1ccc(O)c(C(=O)O)c1", "note": "[5-ASA coarse acicular crystals, 5-aminosalicylic acid]", "values": [
      {"measurement": "Bulk density", "setting": "[1]", "result": "250 to 270", "unit": "g/L"},
      {"measurement": "Bulk density", "setting": "[1]; [5]", "result": "250 to 270", "unit": "g/L"},
      {"measurement": "Tapped density", "setting": "[2]", "result": "450 to 480", "unit": "g/L"},
      {"measurement": "Tapped density", "setting": "[2]; [5]", "result": "450 to 480", "unit": "g/L"},
      {"measurement": "Grain size distribution X(10)", "setting": "[3]", "result": "X (10) = 10-15 μm"},
      {"measurement": "Grain size distribution X(50)", "setting": "[3]", "result": "X (50) = 50-60 μm"},
      {"measurement": "Grain size distribution X(90)", "setting": "[3]", "result": "X (90) = 200-220 μm"},
      {"measurement": "Grain size distribution X(10)", "setting": "[3]; [5]", "result": "X(10) = 10-15 μm"},
      {"measurement": "Grain size distribution X(50)", "setting": "[3]; [5]", "result": "50-60 μm"},
      {"measurement": "Grain size distribution X(90)", "setting": "[3]; [5]", "result": "200-220 μm"}
    ]},
    {"compound": "Nc1ccc(O)c(C(=O)O)c1", "note": "[5-ASA fine acicular crystals, 5-aminosalicylic acid]", "values": [
      {"measurement": "Bulk density", "setting": "[1]", "result": "150 to 190", "unit": "g/L"},
      {"measurement": "Bulk density", "setting": "[1]; listed as 5-ASA fine crystals", "result": "150 to 190", "unit": "g/L"},
      {"measurement": "Tapped density", "setting": "[2]", "result": "300 to 390", "unit": "g/L"},
      {"measurement": "Tapped density", "setting": "[2]; listed as 5-ASA fine crystals", "result": "300 to 390", "unit": "g/L"},
      {"measurement": "Grain size distribution X(10)", "setting": "[3]", "result": "X (10) = 2-6 μm"},
      {"measurement": "Grain size distribution X(50)", "setting": "[3]", "result": "X (50) = 8-20 μm"},
      {"measurement": "Grain size distribution X(90)", "setting": "[3]", "result": "X (90) = 25-50 μm"},
      {"measurement": "Grain size distribution X(10)", "setting": "[3]; listed as 5-ASA fine crystals", "result": "X(10) = 2-6 μm"},
      {"measurement": "Grain size distribution X(50)", "setting": "[3]; listed as 5-ASA fine crystals", "result": "8-20 μm"},
      {"measurement": "Grain size distribution X(90)", "setting": "[3]; listed as 5-ASA fine crystals", "result": "25-50 μm"}
    ]},
    {"compound": "Nc1ccc(O)c(C(=O)O)c1", "note": "[Example 1, 5-aminosalicylic acid]", "values": [
      {"measurement": "Bulk density", "setting": "[1]", "result": "400 to 500", "unit": "g/L"},
      {"measurement": "Tapped density", "setting": "[2]", "result": "600 to 800", "unit": "g/L"},
      {"measurement": "Grain size distribution X(10)", "setting": "[3]", "result": "X(10) = 7-10 μm"},
      {"measurement": "Grain size distribution X(50)", "setting": "[3]", "result": "25-35 μm"},
      {"measurement": "Grain size distribution X(90)", "setting": "[3]", "result": "80-90 μm"},
      {"measurement": "Circularity", "setting": "[4]; 1 = ideal sphere", "result": "~0.8"},
      {"measurement": "Aspect ratio (width/length; w/l)", "setting": "[4]; listed as 5-ASA according to the invention having a particularly high bulk density", "result": "around 0.5"}
    ]},
    {"compound": "Nc1ccc(O)c(C(=O)O)c1", "note": "[Example 2, 5-aminosalicylic acid]", "values": [
      {"measurement": "Bulk density", "setting": "[1]", "result": "300 to 400", "unit": "g/L"},
      {"measurement": "Tapped density", "setting": "[2]", "result": "510 to 700", "unit": "g/L"},
      {"measurement": "Grain size distribution X(10)", "setting": "[3]", "result": "X(10) = 3-5 μm"},
      {"measurement": "Grain size distribution X(50)", "setting": "[3]", "result": "15-45 μm"},
      {"measurement": "Grain size distribution X(90)", "setting": "[3]", "result": "90-100 μm"},
      {"measurement": "Aspect ratio (width/length; w/l)", "setting": "[4]; listed as 5-ASA having a high bulk density according to the invention", "result": "around 0.36"}
    ]}
  ]
}
